The results in this text go back to US9493479B2 (Merck Sharp & Dohme Corp., priority 2013, dated 2016).

One assay deals with HIV-1 (NL4-3 strain). The assay is described as follows: ViKinG (Viral Kinetics GFP Reporter) assay for inhibition of HIV replication. The conditions noted are these: MT4-GFP cells infected with HIV-1 NL4-3, RPMI + 10% or 50% NHS (not given), infected cells at 48 h / 24 h. The format is cell-based. The text has this:
The ViKinG (Viral Kinetics GFP Reporter) assay is an in vitro kinetic assay that employs the MT4-gag-GFP reporter cell line (Wang et al., “Assessment of the susceptibility of mutant HIV-1 to antiviral agents.” J Virological Methods 165:230-37 (2010)) to quantify the number of new cells infected in each round of replication. The purpose of the ViKinG assay is to identify agents that inhibit HIV progression. Briefly, HIV infection results in tat transactivation of the stably expressed HIV LTR promoter to drive gagGFP expression. Thus, an increase in the number of GFP-MT4 cells results following HIV infection.
MT4-GFP cells (250,000 cells/m1) were bulk-infected with HIV-1 (NL4-3 strain) at low multiplicity of infection (MOT) in RPMI+10% FBS for 24 hours. Cells were then washed once in RPMI+10% FBS and resuspended RPMI+10% or 50% normal human serum (NHS). Test compounds were serial-diluted in DMSO on an ECHO® liquid handling platform (Labcyte Corp., Sunnyvale, Calif.), along with a triple drug control (integrase, protease and NNRTI compounds). The infected MT4-GFP cells were added to a 384-well poly-D-lysine coated black plate with clear bottom in which the diluted test compounds were placed. The cells were seeded at 8,000 cells per well and the final DMSO concentration was 0.4%. The infected cells (Green GFP cells) were quantified at both 24 and 48 hours post incubation using Acumen® eX3 (TTP Labtech Ltd., Hertfordshire, United Kingdom). Viral reproductive ratio (R0) was determined using the number of infected cells at 48 hours divided by the number of infected cells at 24 hours. Percent viral growth inhibition was calculated by [1−(R−Rtripledrug)/(RDMSO−Rtripledrug)]*100. Compound potency IP or IC50 was determined by a 4-parameter dose response curve analysis.

For the next assay, the target named is T1, WT-Integrase (Human immunodeficiency virus type 1 group M subtype B, UniProt P04585).
T1 construct: assembled PVT SPA beads with WT-Integrase and boitinylated DNA
Put plainly: InSTANT integrase DNA strand transfer functional assay. Type of assay: biochemical, HIV. Particulars: SPA strand transfer, 15 minutes at 37° C. The protocol: InSTANT is an integrase DNA strand transfer functional assay used to determine potency of InSTIs, which was carried out as described below. 8 μl of SPA buffer (27.8 mM Hepes, 27.8 mM MgCl2, 111.1 μg/mL BSA, 5.56 mM βME, and 57.1 mM NaCl) containing 5 nM 3H-labeled target DNA (prepared separately) and 10 μl of assembled PVT SPA beads with WT-Integrase and boitinylated DNA (prepared separately) were added to the assay plate which contained 0.4 μl of test compound(s) or positive or negative control compound(s) per well. The assay plate was shaken for 1 minute on HT-91002 1.0 MM shaker and then was sealed and incubated for 15 minutes at 37° C. The assay reaction was quenched by adding 4 μl of 1.25 M EDTA to each well of the assay plate with mixing. After incubating the plate at room temperature for 1 hour, the quenched plate was spun at 200 g for 1 minute and read on TopCount (1 minute per well). Percent inhibition was calculated by [1−(Sample−Min)/(Max−Min)]*100. Compound potency IP or IC50 was determined by a 4-parameter dose response curve analysis.

Where [1] appears, read: Human immunodeficiency virus 1, NL43.

Where a name gives a salt, the structure may show the parent alone. A value given as a limit tells only on which side of the number the result lay.

Consider `O=C1c2c(O)c(=O)c3c(n2CCN1Cc1ccc(F)c(Cl)c1)COC31CCCC1O` (stereo not shown) [Compound 14, 7′-(3-chloro-4-fluorobenzyl)-2,5′-dihydroxy-8′,9′-dihydrospiro[cyclopentane-1,3′-furo[3′,4′:5,6]pyrido[1,2-a]pyrazine]-4′,6′(1′H,7′H)-dione], for which the concentration for half-maximal inhibition (IC50) was 144 nM with HIV-1 (NL4-3 strain) (setting [1]) and 12 nM against WT-Integrase.

`C=C(C)C1COCc2c1c(=O)c(O)c1n2CCN(Cc2ccc(F)c(Cl)c2)C1=O` (stereo not shown) [Compound 26]: the IC50 with HIV-1 (NL4-3 strain) (setting [1]) was found to be 272 nM.

As to `CC1CCNCc2c1c(=O)c(O)c1n2CCN(Cc2ccc(F)c(Cl)c2)C1=O` (stereo not shown) [Compound 16, 9-(3-chloro-4-fluorobenzyl)-7-hydroxy-5-methyl-2,3,4,5,10,11-hexahydropyrazino[1′,2′:1,6]pyrido[2,3-c]azepine-6,8(1H,9H)-dione trifluoroacetate salt], in the assay with HIV-1 (NL4-3 strain) (setting [1]), the IC50 is 487 nM.

With `O=C1c2c(O)c(=O)c3c(n2CCN1Cc1ccc(F)c(Cl)c1)COCC=C3` [Compound 2, 9-(3-chloro-4-fluorobenzyl)-7-hydroxy-10,11-dihydro-1H-oxepino[4′,3′:5,6]pyrido[1,2-a]pyrazine-6,8(3H,9H)-dione], the 50% inhibitory concentration (IC50) in the assay on HIV-1 (NL4-3 strain) (setting [1]) turned out to be 76 nM; against WT-Integrase it was 11 nM.

`C=C1CCN(C(=O)CN(C)C)Cc2c1c(=O)c(O)c1n2CCN(Cc2ccc(F)c(Cl)c2)C1=O` [Compound 29]: the 50% inhibitory concentration (IC50) in the assay on HIV-1 (NL4-3 strain) (setting [1]) was greater than 4200 nM.

Regarding `O=C1c2c(O)c(=O)c3c(n2CCN1Cc1ccc(F)c(Cl)c1)COC31C=CCCC1` (stereo not shown) [Compound 15, 7′-(3-chloro-4-fluorobenzyl)-5′-hydroxy-8′,9′-dihydrospiro[cyclohex[2]ene-1,3′-furo[3′,4′:5,6]pyrido[1,2-a]pyrazine]-4′,6′(1′H,7′H)-dione], the 50% inhibitory concentration (IC50) with HIV-1 (NL4-3 strain) (setting [1]) was found to be 401 nM.

In the case of `O=C1c2c(O)c(=O)c3c(n2CCN1Cc1ccc(F)c(Cl)c1)COCC1CC31` (stereo not shown) [Compound 3, 2-(3-chloro-4-fluorobenzyl)-11-hydroxy-3,4,8,8a,9,9a-hexahydrocyclopropa[5′,6]oxepino[4′,3′:5,6]pyrido[1,2-a]pyrazine-1,10(2H,6H)-dione], the IC50 in the assay with HIV-1 (NL4-3 strain) (setting [1]) worked out at 241 nM.

As to `O=C1c2c(O)c(=O)c3c(n2CCN1Cc1ccc(F)cc1)COCCCC3` [Compound 9, 10-(4-fluorobenzyl)-8-hydroxy-3,4,5,6,11,12-hexahydrooxocino[4,3′:5,6]pyrido[1,2-a]pyrazine-7, 9(1H, 1 OH)-dione], the IC50 in the assay on HIV-1 (NL4-3 strain) amounted to 961 nM.

Take `O=C1c2c(O)c(=O)c3c(n2CCN1Cc1ccc(F)c(Cl)c1)COC31C=CCC1` (stereo not shown) [Compound 12, 7′-(3-chloro-4-fluorobenzyl)-5′-hydroxy-8′,9′-dihydrospiro[cyclopent[2]ene-1,3′-furo[3′,4′:5,6]pyrido[1,2-a]pyrazine]-4′,6′(1′H,7′H)-dione]: the concentration for half-maximal inhibition (IC50) in the assay with HIV-1 (NL4-3 strain) turned out to be 1020 nM.

Consider `CC(C)c1c(C(=O)N(C)C)n2c(c(O)c1=O)C(=O)N(Cc1ccc(F)c(Cl)c1)CC2` [Compound 19, 2-(3-chloro-4-fluorobenzyl)-9-hydroxy-7-isopropyl-N,N-dimethyl-1,8-dioxo-2,3,4,8-tetrahydro-1H-pyrido[1,2-a]pyrazine-6-carboxamide], for which the values for the IC50 in the assay on HIV-1 (NL4-3 strain) (setting [1]) and against WT-Integrase were 82 nM and 10 nM, respectively.

In the case of `CC(C)c1c(CNC(=O)OC(C)(C)C)n2c(c(O)c1=O)C(=O)N(Cc1ccc(F)c(Cl)c1)CC2` [Compound 31, tert-butyl((2-(3-chloro-4-fluorobenzyl)-9-hydroxy-7-isopropyl-1,8-dioxo-2,3,4,8-tetrahydro-1H-pyrido[1,2-a]pyrazin-6-yl)methyl)carbamate], the IC50 in the assay on HIV-1 (NL4-3 strain) (setting [1]) is 2610 nM; at WT-Integrase, 42 nM.

`C/C=C1\COCc2c1c(=O)c(O)c1n2CCN(Cc2ccc(F)c(Cl)c2)C1=O` [Compound 5, (Z)-8-(3-chloro-4-fluorobenzyl)-4-ethylidene-6-hydroxy-3,4,9,10-tetrahydropyrano[4′,3′:5,6]pyrido[1,2-a]pyrazine-5,7(1H,8H)-dione]: in the assay on HIV-1 (NL4-3 strain) (setting [1]), the half-inhibitory concentration (IC50) was 183 nM.

For the compound `O=C1c2c(O)c(=O)c3c(n2CCN1Cc1ccc(F)c(Cl)c1)COCCC3` [Compound 1, 9-(3-chloro-4-fluorobenzyl)-7-hydroxy-4,5,10,11-tetrahydro-1H-oxepino[4′,3′:5,6]pyrido[1,2-a]pyrazine-6,8(3H,9H)-dione], the IC50 with HIV-1 (NL4-3 strain) (setting [1]) was 347 nM; against WT-Integrase, 58 nM.

On to `Cc1cn(C)c(=O)c2c1c(=O)c(O)c1n2CCN(Cc2ccc(F)c(Cl)c2)C1=O` [Compound 22, 8-(3-chloro-4-fluorobenzyl)-6-hydroxy-2,4-dimethyl-9,10-dihydro-1H-pyrazino[1,2-a][1,7]naphthyridine-1,5,7(2H,8H)-trione], for which the IC50 was determined as 456 nM in the assay with HIV-1 (NL4-3 strain) (setting [1]) and 1 nM against WT-Integrase.

With `CC(C)c1c(CN)n2c(c(O)c1=O)C(=O)N(Cc1ccc(F)c(Cl)c1)CC2` [Compound 32, 6-(aminomethyl)-2-(3-chloro-4-fluorobenzyl)-9-hydroxy-7-isopropyl-3,4-dihydro-1H-pyrido[1,2-a]pyrazine-1,8(2H)-dione trifluoroacetate salt], the IC50 with HIV-1 (NL4-3 strain) (setting [1]) is 151 nM; at WT-Integrase, 14 nM.

Take `CC(C)C1COCc2c1c(=O)c(O)c1n2CCN(Cc2ccc(F)cc2)C1=O` (stereo not shown) [Compound 27]: the half-inhibitory concentration (IC50) in the assay on HIV-1 (NL4-3 strain) (setting [1]) came out at 672 nM.

Turning to `O=C1c2c(O)c(=O)c3c(n2CCN1Cc1ccc(F)c(Cl)c1)COC31CCC2CC21` (stereo not shown) [Compound 13], the IC50 in the assay with HIV-1 (NL4-3 strain) (setting [1]) stood at 333 nM; against WT-Integrase it was 8 nM.

Take `CC1CCN(C(=O)C(=O)N(C)C)Cc2c1c(=O)c(O)c1n2CCN(Cc2ccc(F)c(Cl)c2)C1=O` (stereo not shown) [Compound 18, 2-(9-(3-chloro-4-fluorobenzyl)-7-hydroxy-5-methyl-6,8-dioxo-4,5,8,9,10,11-hexahydropyrazino[1′,2′:1,6]pyrido[2,3-c]azepin-2(1H,3H,6H)-yl)-N,N-dimethyl-2-oxoacetamide]: the IC50 in the assay on HIV-1 (NL4-3 strain) (setting [1]) amounted to 3660 nM; at WT-Integrase, 20 nM.

For `C=C1CCN(C(=O)C(=O)N(C)C)Cc2c1c(=O)c(O)c1n2CCN(Cc2ccc(F)c(Cl)c2)C1=O` [Compound 17, 2-(9-(3-chloro-4-fluorobenzyl)-7-hydroxy-5-methylene-6,8-dioxo-4,5,8,9,10,11-hexahydropyrazino[1′,2′:1,6]pyrido[2,3-c]azepin-2(1H,3H,6H)-yl)-N,N-dimethyl-2-oxoacetamide], in the assay on HIV-1 (NL4-3 strain) (setting [1]), the IC50 was greater than 4200 nM.

Take `C=C1COCc2c1c(=O)c(O)c1n2CCN(Cc2ccc(F)c(Cl)c2)C1=O` [Compound 11, 8-(3-chloro-4-fluorobenzyl)-6-hydroxy-4-methylene-3,4,9,10-tetrahydropyrano[4′,3′:5,6]pyrido[1,2-a]pyrazine-5,7(1H,8H)-dione]: the 50% inhibitory concentration (IC50) with HIV-1 (NL4-3 strain) (setting [1]) amounted to 298 nM.

Regarding `CN1C/C=C\Cc2c(n3c(c(O)c2=O)C(=O)N(Cc2ccc(F)c(Cl)c2)CC3)C1=O` [Compound 23, (Z)-10-(3-chloro-4-fluorobenzyl)-8-hydroxy-2-methyl-2,3,11,12-tetrahydro-1H-pyrazino[1′,2′:1,6]pyrido[2,3-c]azocine-1,7,9(6H,10H)-trione], the IC50 in the assay on HIV-1 (NL4-3 strain) (setting [1]) stood at 273 nM.

As for `CCc1cn(C)c(=O)c2c1c(=O)c(O)c1n2CCN(Cc2ccc(F)c(Cl)c2)C1=O` [Compound 24, 8-(3-chloro-4-fluorobenzyl)-4-ethyl-6-hydroxy-2-methyl-9,10-dihydro-1H-pyrazino[1,2-a][1,7]naphthyridine-1,5,7(2H,8H)-trione], the IC50 in the assay on HIV-1 (NL4-3 strain) (setting [1]) is 1120 nM.

As for `CC(C)c1c(CNC(=O)c2ccon2)n2c(c(O)c1=O)C(=O)N(Cc1ccc(F)c(Cl)c1)CC2` [Compound 10, N-((2-(3-chloro-4-fluorobenzyl)-9-hydroxy-7-isopropyl-1,8-dioxo-2,3,4,8-tetrahydro-1H-pyrido[1,2-a]pyrazin-6-yl)methyl)isoxazole-3-carboxamide], the IC50 in the assay with HIV-1 (NL4-3 strain) (setting [1]) came out at 406 nM.

`C=C1CCOCc2c1c(=O)c(O)c1n2CCN(Cc2ccc(F)c(Cl)c2)C1=O` [Compound 28]: the half-maximal inhibitory concentration (IC50) with HIV-1 (NL4-3 strain) (setting [1]) worked out at 503 nM.

Consider `CC1CCN(C(=O)CN(C)C)Cc2c1c(=O)c(O)c1n2CCN(Cc2ccc(F)c(Cl)c2)C1=O` (stereo not shown) [Compound 30], for which the IC50 in the assay on HIV-1 (NL4-3 strain) (setting [1]) worked out at 3250 nM.
